Biological target: Somatostatin receptor type 2 (Rattus norvegicus) (UniProt P30680)
Assay: Binding affinity for SSTR2 receptors of rat cortex membranes was determined by using [125I][Tyr3]-octreotide radioligand

Chain of Somatostatin receptor type 2 (Rattus norvegicus) (P30680 whole entry, looked up): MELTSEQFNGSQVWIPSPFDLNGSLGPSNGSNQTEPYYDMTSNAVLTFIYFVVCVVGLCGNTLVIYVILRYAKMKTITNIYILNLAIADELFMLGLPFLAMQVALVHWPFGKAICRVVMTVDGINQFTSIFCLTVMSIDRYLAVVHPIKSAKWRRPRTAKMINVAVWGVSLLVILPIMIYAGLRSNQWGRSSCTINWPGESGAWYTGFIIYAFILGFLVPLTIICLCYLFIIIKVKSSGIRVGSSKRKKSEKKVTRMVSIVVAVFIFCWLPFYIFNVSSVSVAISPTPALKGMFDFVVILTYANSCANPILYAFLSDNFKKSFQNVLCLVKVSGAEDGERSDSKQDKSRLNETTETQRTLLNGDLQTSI

Ki: 3.2 nM
SMILES: C[C@@H](O)[C@@H]1NC(=O)[C@H](CCCCN)NC(=O)[C@@H](Cc2c[nH]c3ccccc23)NC(=O)[C@H](Cc2ccccc2)NC(=O)[C@@H](NC(=O)[C@@H](Cc2ccccc2)NC(=O)CN2CCN(CC(=O)O)CCN(CC(=O)O)CCN(CC(=O)O)CC2)CSSC[C@@H](C(=O)N[C@H](CO)[C@@H](C)O)NC1=O

Reference: BindingDB's records for doi:10.1016/s0960-894x(98)00187-5 (Novartis Pharma, 1999)
